The values that follow come from patent US8822468B2 (Novartis AG, priority 2008, dated 2014).

A word on the IC50: it is the concentration needed to halve the response being measured.

T1 sequence (P08581 969-1390): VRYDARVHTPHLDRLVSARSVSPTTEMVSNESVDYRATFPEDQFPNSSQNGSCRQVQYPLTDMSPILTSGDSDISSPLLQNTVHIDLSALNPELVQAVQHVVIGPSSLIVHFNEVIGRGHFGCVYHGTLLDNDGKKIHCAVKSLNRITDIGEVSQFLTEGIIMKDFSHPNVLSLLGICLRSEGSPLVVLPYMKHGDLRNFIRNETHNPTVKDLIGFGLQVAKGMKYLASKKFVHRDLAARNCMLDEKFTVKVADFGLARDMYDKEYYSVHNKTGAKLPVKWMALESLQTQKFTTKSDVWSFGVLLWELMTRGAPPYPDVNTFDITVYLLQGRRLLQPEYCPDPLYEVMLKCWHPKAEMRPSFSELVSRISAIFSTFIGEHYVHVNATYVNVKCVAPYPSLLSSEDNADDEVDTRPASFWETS

This assay has as its target T1, cMET receptor tyrosine kinase (GST-cMET (969-1390)) (Homo sapiens, UniProt P08581).
T1 construct: made in house
The assay is described as follows: EPK cMET profiling assay (LanthaScreen TR-FRET antibody based kinase phosphorylation assay). It counts as biochemical. To be noted: purified recombinant GST-cMET (969-1390), 2 μM ATP, 50 nM Fluorescein-PolyEAY, 60 minutes at room temperature; read-out: c-Met IC50. As for the experimental part: A number of compounds of the present invention were assayed in an antibody based kinase phosphorylation assay as follows.
EPK cMET Profiling Assay:
The EPK kinase assay for cMET receptor tyrosine kinase was developed, using the purified recombinant GST-fusion protein, containing the cytoplasmic domain of the enzyme. GST-cMET (969-1390) was purified by affinity chromatography.
The kinase assay is based on the LanthaScreen™ technology. LanthaScreen™ is the detection of Time-Resolved Fluorescence Resonance Energy Transfer (TR-FRET) using lanthanide chelates to measure interactions between various binding partners. In a TR-FRET kinase assay, a long-lifetime lanthanide donor species is conjugated to an antibody that specifically binds to a phosphorylated product of a kinase reaction that is labeled with a suitable acceptor fluorophore. This antibody-mediated interaction brings the lanthanide donor and the acceptor into proximity such that resonance energy transfer can take place, resulting in a detectible increase in the FRET signal.
The kinase reactions were performed in 384 well microtiter plates in a total reaction volume of 9.05 μL. The assay plates were prepared with 0.05 μL per well of test compound in the appropriate test concentration, as described under “preparation of compound dilutions”. The reactions were started by combining 4.5 μL of ATP solution with 4.5 μL of enzyme-substrate mix (consisting of kinase and substrate). The final concentrations in the kinase reactions were 35 mM Tris/HCl, 1 mM DTT, 0.025% Tween20, 10 μM sodium orthovanadate, 0.25% BSA, 0.6% DMSO, 10 mM MgCl2, 3 mM MnCl2, 2 μM ATP, 50 nM Fluorescein-PolyEAY, and 0.3 nM enzyme.
The reactions were incubated for 60 minutes at room temperature and stopped by adding 4.5 μL of stop buffer (50 mM EDTA, 0.04% NP40, 20 mM Tris/HCl).
Subsequently 4.5 μL of detection mix (50 mM Tris/HCl, 2 mM DTT, 0.05% Tween20, 20 μM sodium orthovanadate, 1% BSA, 1.72 μg/ml Tb-PY20 antibody) were added to the stopped reactions. After 30 minutes incubation at room temperature, the plates were measured in a BMG Pherastar fluorescence reader. The effect of compound on the enzymatic activity was in all assays obtained from the linear progress curves and determined from one reading (end point measurement).
Test compounds were dissolved in DMSO (10 mM) and transferred into 1.4 mL flat bottom or V-shaped Matrix tubes carrying a unique 2D matrix. The stock solutions were stored at −20° C. if not used immediately. For the test procedure the vials were defrosted and identified by a scanner whereby a working sheet was generated that guided the subsequent working steps.
Compound dilutions were made in 96 well plates. This format enabled the assay of maximally 40 individual test compounds at 8 concentrations (single points) including 4 reference compounds. The dilution protocol included the production of “pre-dilution plates”, “master plates” and “assay plates”.
Pre-dilution plates: 96 polypropylene well plates were used as pre-dilution plates. A total of 4 pre-dilution plates were prepared including 10 test compounds each on the plate positions A1-A10, one standard compound at A11 and one DMSO control at A12. All dilution steps were done on a HamiltonSTAR robot.
Master plates: 100 μL of individual compound dilutions including standard compound and controls of the 4 “pre-dilution plates” were transferred into a 384 “master plate” including the following concentrations 1,820, […], 182, 54.6, 18.2, 5.46, 1.82 and 0.546 μM, respectively in 90% of DMSO.
Assay plates: Identical “assay plates” were then prepared by pipetting 50 nL each of compound dilutions of the “master plates” into 384-well “assay plates” by means of a HummingBird 384-channel dispenser. These plates were used directly for the assay which was performed in a total volume of 9.05 μL. This led to a final compound concentration of 10, 3.0, 1.0, 0.3, 0.1, 0.03, 0.01 and 0.003 μM and a final DMSO concentration of 0.5% in the assay.
In general terms: Time-resolved FRET reads energy transfer from a long-lived donor to a nearby acceptor.
`O=Cc1cccc(-c2ccc3ncc(Cc4ccc5ncccc5c4)n3n2)c1` [Example 24, 3-(3-Quinolin-6-ylmethyl-imidazo[1,2-b]pyridazin-6-yl)-benzaldehyde]: the IC50 was found to be 23.5 nM.
For the compound `Fc1ccc(-c2ccc3ncc(Cc4ccc5ncccc5c4)n3n2)cc1` [Example 25, 6-[6-(4-Fluoro-phenyl)-imidazo[1,2-b]pyridazin-3-ylmethyl]-quinoline], the IC50 was found to be 48 nM.
As to `OCCn1cc(-c2ccc3ncc(Cc4cc5cccnc5cc4Cl)n3n2)cn1` [Example 243, 2-{4-[3-(7-Chloro-quinolin-6-ylmethyl)-imidazo[1,2-b]pyridazin-6-yl]-pyrazol-1-yl}-ethanol], the 50% inhibitory concentration (IC50) stood at 37 nM.
`CN1CCC(Nc2ccc3ncc(Cc4ccc5ncccc5c4)n3n2)CC1` [Example 83, (1-Methyl-piperidin-4-yl)-(3-quinolin-6-ylmethyl-imidazo[1,2-b]pyridazin-6-yl)-amine]: the IC50 worked out at 115 nM.
In the case of `c1cnc2ccc(Cc3cnc4ccc(-n5ccnc5)nn34)cc2c1` [Example 115, 6-(6-Imidazol-1-yl-imidazo[1,2-b]pyridazin-3-ylmethyl)-quinoline], the IC50 stood at 95 nM.
Take `Cc1nccn1-c1ccc2ncc(Cc3ccc4ncccc4c3)n2n1` [Example 116, 6-[6-(2-Methyl-imidazol-1-yl)-imidazo[1,2-b]pyridazin-3-ylmethyl]-quinoline]: the IC50 came to 980 nM.
Turning to `Fc1cc2ncccc2cc1Cc1cnc2ccc(-c3cn[nH]c3)nn12` [Example 251, 7-Fluoro-6-[6-(1H-pyrazol-4-yl)-imidazo[1,2-b]pyridazin-3-ylmethyl]-quinoline], the IC50 is 21 nM.
In the case of `Clc1ccc(-c2ccc(-c3ccc4ncc(Cc5ccc6ncccc6c5)n4n3)cn2)cn1` [Example 48, 6′-Chloro-5-(3-quinolin-6-ylmethyl-imidazo[1,2-b]pyridazin-6-yl)-[2,3′]bipyridinyl], the IC50 turned out to be 190 nM.
For `NC(=O)c1cccc(-c2ccc3ncc(Cc4ccc5ncccc5c4)n3n2)c1` [Example 57, 3-(3-Quinolin-6-ylmethyl-imidazo[1,2-b]pyridazin-6-yl)-benzamide] the value was 63 nM.
As to `Cn1cc(-c2ccc3ncc(Cc4ccc5ncccc5c4)n3n2)cn1` [Example 2, 6-[6-(1-Methyl-1H-pyrazol-4-yl)-imidazo[1,2-b]pyridazin-3-ylmethyl]-quinoline], the IC50 was 14 nM.
The same measure for `Cn1cc(-c2ccc3ncc(C(O)c4ccc5nccn5c4)n3n2)cn1` (racemic) [Example 9, (rac)-Imidazo[1,2-a]pyridin-6-yl-[6-(1-methyl-1H-pyrazol-4-yl)-imidazo[1,2-b]pyridazin-3-yl]-methanol]: 170 nM; for `CC(=O)c1cccc(-c2ccc3ncc(Cc4ccc5ncccc5c4)n3n2)c1` [Example 55, 1-[3-(3-Quinolin-6-ylmethyl-imidazo[1,2-b]pyridazin-6-yl)-phenyl]-ethanone]: 31 nM.
Take `CC(c1ccc(O)cc1)c1cnc2ccc(-c3cnn(CCO)c3)nn12` (racemic) [Example 221, (rac)-4-(1-{6-[1-(2-Hydroxy-ethyl)-1H-pyrazol-4-yl]-imidazo[1,2-b]pyridazin-3-yl}-ethyl)-phenol]: the IC50 was 240 nM.
In the case of `OCCn1cc(-c2ccc3ncc(Cc4ccc(O)cc4F)n3n2)cn1` [Example 219, 3-Fluoro-4-{6-[1-(2-hydroxy-ethyl)-1H-pyrazol-4-yl]-imidazo[1,2-b]pyridazin-3-ylmethyl}-phenol], the concentration for half-maximal inhibition (IC50) came to 120 nM.
`OC(c1cc2cccnc2cc1F)c1cnc2ccc(-c3cn[nH]c3)nn12` (racemic) [Example 252, (rac)-(7-Fluoro-quinolin-6-yl)-[6-(1H-pyrazol-4-yl)-imidazo[1,2-b]pyridazin-3-yl]-methanol]: the IC50 was determined as 280 nM.
On to `CC(C)(C)OC(=O)N1CCC(n2cc(-c3ccc4ncc(Cc5c(F)cc6ncccc6c5F)n4n3)cn2)CC1` [Example 244, 4-{4-[3-(5,7-Difluoro-quinolin-6-ylmethyl)-imidazo[1,2-b]pyridazin-6-yl]-pyrazol-1-yl}-piperidine-1-carboxylic acid tert-butyl ester], for which the IC50 was 87 nM.
Regarding `CC(c1c(F)cc2ncccc2c1F)c1cnc2ccc(-c3cnn(C)c3)nn12` (racemic) [Example 191, (rac)-5,7-Difluoro-6-{1-[6-(1-methyl-1H-pyrazol-4-yl)-imidazo[1,2-b]pyridazin-3-yl]-ethyl}-quinoline], the IC50 was less than 3 nM.
The same measure for `c1cnc2ccc(Cc3cnc4ccc(-c5ccc6c(c5)OCO6)nn34)cc2c1` [Example 51, 6-(6-Benzo[1,3]dioxol-5-yl-imidazo[1,2-b]pyridazin-3-ylmethyl)-quinoline]: 95 nM.
As for `Nc1cccc(-c2ccc3ncc(Cc4ccc5ncccc5c4)n3n2)c1` [Example 20, 3-(3-Quinolin-6-ylmethyl-imidazo[1,2-b]pyridazin-6-yl)-phenylamine], the concentration for half-maximal inhibition (IC50) was found to be 60 nM.
For `CC(c1ccc2ncccc2c1Cl)c1cnc2ccc(-c3cnn(C4CCNCC4)c3)nn12` (racemic) [Example 223, (rac)-5-Chloro-6-{1-[6-(1-piperidin-4-yl-1H-pyrazol-4-yl)-imidazo[1,2-b]pyridazin-3-yl]-ethyl}-quinoline] the value was 33 nM.
The same measure for `CC(c1ccc2ncccc2c1)c1cnc2ccc(-c3cnn(C)c3)nn12` (racemic) [Example 157, (rac)-6-{1-[6-(1-Methyl-1H-pyrazol-4-yl)-imidazo[1,2-b]pyridazin-3-yl]-ethyl}-quinoline]: 7 nM.
Regarding `O[C@H]1CCN(c2ccc3ncc(Cc4cc5cccnc5cc4F)n3n2)C1` [Example 261, (S)-1-[3-(7-Fluoro-quinolin-6-ylmethyl)-imidazo[1,2-b]pyridazin-6-yl]-pyrrolidin-3-ol], the half-inhibitory concentration (IC50) amounted to 120 nM.
Consider `COc1ccc(C(O)c2cnc3ccc(-c4cnn(C)c4)nn23)cc1` (racemic) [Example 3, (rac)-(4-Methoxy-phenyl)-[6-(1-methyl-1H-pyrazol-4-yl)-imidazo[1,2-b]pyridazin-3-yl]-methanol], for which the IC50 is 3950 nM.
On to `Cn1ncc2cc(Cc3cnc4ccc(-c5cnn(CCO)c5)nn34)c(F)cc21` [Example 281, 2-{4-[3-(6-Fluoro-1-methyl-1H-indazol-5-ylmethyl)-imidazo[1,2-b]pyridazin-6-yl]-pyrazol-1-yl}-ethanol], for which the IC50 came to 77 nM.
Take `Cn1ncc2cc(Cc3cnc4ccc(-c5cnn(C6CCNCC6)c5)nn34)c(F)cc21` [Example 282, 3-(6-Fluoro-1-methyl-1H-indazol-5-ylmethyl)-6-(1-piperidin-4-yl-1H-pyrazol-4-yl)-imidazo[1,2-b]pyridazine]: the IC50 worked out at 87 nM.
For `CN(c1cccc(Cl)c1)c1ccc2ncc(Cc3ccc4ncccc4c3)n2n1` [Example 138, (3-Chloro-phenyl)-methyl-(3-quinolin-6-ylmethyl-imidazo[1,2-b]pyridazin-6-yl)-amine], the IC50 was found to be 960 nM.
With `CNCCn1cc(-c2ccc3ncc(Cc4ccc5ncccc5c4)n3n2)cn1` [Example 237, Methyl-{2-[4-(3-quinolin-6-ylmethyl-imidazo[1,2-b]pyridazin-6-yl)-pyrazol-1-yl]-ethyl}-amine], the IC50 was 170 nM.
For the compound `OCCn1cc(-c2ccc3ncc(Cc4cc5cccnc5cc4F)n3n2)cn1` [Example 254, 2-{4-[3-(7-Fluoro-quinolin-6-ylmethyl)-imidazo[1,2-b]pyridazin-6-yl]-pyrazol-1-yl}-ethanol], the IC50 is 33 nM.
